Assay results published in PubChem BioAssay AID1919000 (Molecular Pharmacology Branch, DTP, NCI, 2023).
pIC50: −log10 of the molar value.

Test system: 653999-131-R-J2-PDC complex spheroids, growth % test/control
Assay: Anticancer human tumor 653999-131-R-J2-PDC patient-derived lung adenocarcinoma cell line growth inhibition [AhR]
Conditions: for pIC50: curve of first compound; for viability, T/C: stronger effect = lower value
Procedure, shortened: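 Agents were dosed in half-log steps down from roughly clinical Cmax, or from 10 microM where Cmax was unknown, alone and with AhR antagonists. Read-out: percent test/control growth of tumor spheroids containing HUVEC and MSC stromal cells.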

[1] = second compound 0.1 µM, first compound 0.0316 µM
[2] = second compound 0.1 µM, first compound 0.1 µM
[3] = second compound 0.316 µM, first compound 0.0316 µM
[4] = second compound 0.316 µM, first compound 0.1 µM
[5] = second compound 1 µM, first compound 0.0316 µM
[6] = second compound 1 µM, first compound 0.1 µM
[7] = second compound 3.16 µM, first compound 0.0316 µM
[8] = second compound 3.16 µM, first compound 0.1 µM
[9] = second compound 10 µM, first compound 0.0316 µM
[10] = second compound 10 µM, first compound 0.1 µM
[11] = second compound 0.1 µM, first compound 0.316 µM
[12] = second compound 0.1 µM, first compound 1 µM
[13] = second compound 0.1 µM, first compound 3.16 µM
[14] = second compound 0.1 µM, first compound 10 µM
[15] = second compound 0.316 µM, first compound 0.316 µM
[16] = second compound 0.316 µM, first compound 1 µM
[17] = second compound 0.316 µM, first compound 3.16 µM
[18] = second compound 0.316 µM, first compound 10 µM
[19] = second compound 1 µM, first compound 0.316 µM
[20] = second compound 1 µM, first compound 1 µM
[21] = second compound 1 µM, first compound 3.16 µM
[22] = second compound 1 µM, first compound 10 µM
[23] = second compound 3.16 µM, first compound 0.316 µM
[24] = second compound 3.16 µM, first compound 1 µM
[25] = second compound 3.16 µM, first compound 3.16 µM
[26] = second compound 3.16 µM, first compound 10 µM
[27] = second compound 10 µM, first compound 0.316 µM
[28] = second compound 10 µM, first compound 1 µM
[29] = second compound 10 µM, first compound 3.16 µM
[30] = second compound 10 µM, first compound 10 µM
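Also: spheroids exposed to agents for seven days.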
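For viability, T/C in this document: 100% = DMSO vehicle control viability.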

| SMILES | pIC50 (second compound 0.1 µM) | pIC50 (second compound 0.316 µM) | pIC50 (second compound 1 µM) | pIC50 (second compound 3.16 µM) | pIC50 (second compound 10 µM) | viability, T/C [1] | viability, T/C [2] | viability, T/C [3] | viability, T/C [4] | viability, T/C [5] | viability, T/C [6] | viability, T/C [7] | viability, T/C [8] | viability, T/C [9] | viability, T/C [10] | viability, T/C [11] | viability, T/C [12] | viability, T/C [13] | viability, T/C [14] | viability, T/C [15] | other results |
| --- | --- | --- | --- | --- | --- | --- | --- | --- | --- | --- | --- | --- | --- | --- | --- | --- | --- | --- | --- | --- | --- |
| CC[C@@]1(O)C(=O)OCc2c1cc1n(c2=O)Cc2cc3c(CN(C)C)c(O)ccc3nc2-1 + Cc1cncc(-c2nc(NCCc3c[nH]c4ccccc34)c3ncn(C(C)C)c3n2)c1 | 7.47 | 7.57 | 7.52 | 7.33 | 8.33 | 49.5% | 40.4% | 44.6% | 33.7% | 51.4% | 36.3% | 57.5% | 36.2% | 34.1% | 28.5% |  |  |  |  |  | viability, T/C (second compound 0.1 µM, first compound 0.000316 µM): 100%; viability, T/C (second compound 0.1 µM, first compound 0.001 µM): 86.7%; viability, T/C (second compound 0.1 µM, first compound 0.00316 µM): 88.2%; viability, T/C (second compound 0.1 µM, first compound 0.01 µM): 70%; viability, T/C (second compound 0.316 µM, first compound 0.000316 µM): 95.4%; viability, T/C (second compound 0.316 µM, first compound 0.001 µM): 93.2%; viability, T/C (second compound 0.316 µM, first compound 0.00316 µM): 83%; viability, T/C (second compound 0.316 µM, first compound 0.01 µM): 72.8%; viability, T/C (second compound 1 µM, first compound 0.000316 µM): 106%; viability, T/C (second compound 1 µM, first compound 0.001 µM): 117%; viability, T/C (second compound 1 µM, first compound 0.00316 µM): 95%; viability, T/C (second compound 1 µM, first compound 0.01 µM): 72.3%; viability, T/C (second compound 3.16 µM, first compound 0.000316 µM): 112%; viability, T/C (second compound 3.16 µM, first compound 0.001 µM): 106%; viability, T/C (second compound 3.16 µM, first compound 0.00316 µM): 91.5%; viability, T/C (second compound 3.16 µM, first compound 0.01 µM): 77.4%; viability, T/C (second compound 10 µM, first compound 0.000316 µM): 55.2%; viability, T/C (second compound 10 µM, first compound 0.001 µM): 64.4%; viability, T/C (second compound 10 µM, first compound 0.00316 µM): 54.6%; viability, T/C (second compound 10 µM, first compound 0.01 µM): 39.3% |
| COc1cc(C2c3cc4c(cc3C(OC3OC5COC(C)OC5C(O)C3O)C3COC(=O)C23)OCO4)cc(OC)c1O (stereo not given) + Cc1cncc(-c2nc(NCCc3c[nH]c4ccccc34)c3ncn(C(C)C)c3n2)c1 | 6.08 | 6.14 | 5.92 | 5.79 | 7.36 | 92.3% | 94.7% | 91% | 79.7% | 93.1% | 84.3% | 96.4% | 85.6% | 50.2% | 47.1% | 58.6% | 51.5% | 37.9% | 28.6% | 58.1% | viability, T/C [16]: 45.6%; viability, T/C [17]: 39%; viability, T/C [18]: 28.4%; viability, T/C [19]: 71%; viability, T/C [20]: 49.3%; viability, T/C [21]: 40.9%; viability, T/C [22]: 29%; viability, T/C [23]: 69%; viability, T/C [24]: 54.5%; viability, T/C [25]: 44.4%; viability, T/C [26]: 31.2%; viability, T/C [27]: 46.2%; viability, T/C [28]: 36.3%; viability, T/C [29]: 31.6%; viability, T/C [30]: 33.8% |
| Nc1ccn(C2OC(CO)C(O)C2(F)F)c(=O)n1 (stereo not given) + Cc1cncc(-c2nc(NCCc3c[nH]c4ccccc34)c3ncn(C(C)C)c3n2)c1 | 6.68 | 6.65 | 6.42 | 6.26 | 6.78 | 67.8% | 57.9% | 70.9% | 60.1% | 80.1% | 66.8% | 82.4% | 70% | 61% | 55.8% | 45.5% | 38.2% | 34.4% | 33.4% | 45.5% | viability, T/C [16]: 38.4%; viability, T/C [17]: 38.5%; viability, T/C [18]: 35.4%; viability, T/C [19]: 50.1%; viability, T/C [20]: 42.4%; viability, T/C [21]: 38.5%; viability, T/C [22]: 33.8%; viability, T/C [23]: 56.5%; viability, T/C [24]: 43.5%; viability, T/C [25]: 39.6%; viability, T/C [26]: 41.9%; viability, T/C [27]: 42.4%; viability, T/C [28]: 43.4%; viability, T/C [29]: 33.3%; viability, T/C [30]: 33.2% |
